Laboratory results taken from ChEMBL document CHEMBL4020825, “Optimization of Potent and Selective Tricyclic Indole Diazepinone Myeloid Cell Leukemia-1 Inhibitors Using Structure-Based Design” (J Med Chem, 2018).
pKi: −log10 of the molar value. Where “and” joins values, the source holds several entries; their conditions need not be identical. Identical values can stand only once.

Experiments:
[1] = molecular target: Apoptosis regulator Bcl-2 (Homo sapiens, UniProt P10415)
Description: Inhibition of FITC-Bak-BH3 binding to Bcl2 (unknown origin) after 1.5 hrs by fluorescence polarization assay

NCI-H929 [2] = experiment: cells; conditions: Homo sapiens, NCI-H929, 72 h
Bcl-2-like protein 1 = Bcl-2-like protein 1 (Homo sapiens, UniProt Q07817)
Chain of Bcl-2-like protein 1 (Q07817 whole entry): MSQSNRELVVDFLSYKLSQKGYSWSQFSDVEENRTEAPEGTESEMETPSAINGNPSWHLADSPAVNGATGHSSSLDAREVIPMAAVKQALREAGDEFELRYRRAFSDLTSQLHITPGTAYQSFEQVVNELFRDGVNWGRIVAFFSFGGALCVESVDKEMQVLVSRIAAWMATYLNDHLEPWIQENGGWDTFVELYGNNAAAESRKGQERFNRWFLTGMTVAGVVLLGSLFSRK
Description: Inhibition of FITC-Bak-BH3 binding to Bcl-XL (unknown origin) after 1.5 hrs by fluorescence polarization assay

in vitro = conditions: human, K562 cells
cells [3] = conditions: Homo sapiens, ALMC2, 72 h
OPM-2 = experiment: cells; conditions: Homo sapiens, OPM-2, 72 h
cells [4] = conditions: Homo sapiens, ALMC1, 72 h
MV4-11 = experiment: cells; conditions: Homo sapiens, MV4-11, 72 h
[5] = molecular target: Induced myeloid leukemia cell differentiation protein Mcl-1 (Homo sapiens, UniProt Q07820)
Chain of Induced myeloid leukemia cell differentiation protein Mcl-1 (Q07820 whole entry): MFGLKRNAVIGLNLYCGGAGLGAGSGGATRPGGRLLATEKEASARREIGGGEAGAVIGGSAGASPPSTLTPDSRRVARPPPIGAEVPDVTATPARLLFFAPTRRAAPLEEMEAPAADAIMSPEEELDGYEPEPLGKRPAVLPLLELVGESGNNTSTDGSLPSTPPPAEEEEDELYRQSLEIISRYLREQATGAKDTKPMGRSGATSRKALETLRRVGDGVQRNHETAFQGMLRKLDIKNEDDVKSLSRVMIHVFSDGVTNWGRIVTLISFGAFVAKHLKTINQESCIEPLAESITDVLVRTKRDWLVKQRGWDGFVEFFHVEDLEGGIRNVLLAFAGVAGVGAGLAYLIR
Description: Inhibition of FITC-Bak-BH3/FITC-Bim-BH3 binding to MCL1 (172 to 327 residues) (unknown origin) expressed in Escherichia coli BL21 CodonPlus (DE3) RIL after 1.5 hrs by fluorescence polarization assay

physchem = conditions: PAMPA
Description: Passive permeability of the compound by PAMPA

NCI-H929 [6] = system: NCI-H929

Chain of Apoptosis regulator Bcl-2 (P10415 whole entry): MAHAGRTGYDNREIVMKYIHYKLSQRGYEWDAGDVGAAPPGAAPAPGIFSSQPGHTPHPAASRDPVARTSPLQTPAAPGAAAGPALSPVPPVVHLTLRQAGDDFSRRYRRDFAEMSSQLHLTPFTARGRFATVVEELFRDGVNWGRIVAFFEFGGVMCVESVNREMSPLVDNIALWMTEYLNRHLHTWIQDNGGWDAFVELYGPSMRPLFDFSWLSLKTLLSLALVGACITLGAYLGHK

pKi [1]	GI50 (NCI-H929 [2])	pKi (Bcl-2-like protein 1)	GI50 at 72 h (in vitro)	Papp (physchem)	SMILES	other results
6.28	330 nM	< 4.44	5.8 µM		Cc1cc(OCCCc2c3n(c4c(-c5c(C)nn(C)c5C)c(Cl)ccc24)CCCN(c2cn(C)c4cc(C(=O)O)ccc24)C3=O)cc(C)c1Cl	
6.28	6100 nM	< 4.44	> 12.5 µM		Cc1cc(OCCCc2c3n(c4c(-c5c(C)nn(C)c5C)c(Cl)ccc24)CCCN(c2cc(C(=O)O)cc4ccn(C)c24)C3=O)cc(C)c1Cl	
	10000 nM		10 µM		Cc1cc(OCCCc2c3n(c4c(-c5c(C)nn(C)c5C)cc(Cl)cc24)CCCN(c2cc(C(=O)O)cc4c2ccn4C)C3=O)cc(C)c1Cl	GI50 (cells [3]): 12 µM; GI50 (OPM-2): 8.9 µM; GI50 (cells [4]): 7.7 µM; GI50 (MV4-11): 9.1 µM; pKi [5]: 6.89
					COC(=O)CNC(=O)c1[nH]c2ccccc2c1CCCOc1cc(C)c(Cl)c(C)c1	pKi [5]: 5.49
				143 ×10⁻⁶ cm/s	Cc1cc(OCCCc2c3n(c4c(-c5c(C)nn(C)c5C)c(Cl)ccc24)CCCN(Cc2cccc(C(=O)O)c2)C3=O)cc(C)c1Cl	
					Cc1cc(OCCCc2c(C(=O)NCCC(=O)O)[nH]c3ccccc23)cc(C)c1Cl	pKi [5]: 6.24
				< 7.6 ×10⁻⁶ cm/s	Cc1cc(OCCCc2c(C(=O)NCc3cccc(C(=O)O)c3)[nH]c3c(-c4c(C)nn(C)c4C)c(Cl)ccc23)cc(C)c1Cl	
	6000 nM		7.7 µM		Cc1cc(OCCCc2c3n(c4c(-c5c(C)nn(C)c5C)cc(Cl)cc24)CCCN(c2cc(C(=O)O)c4ccn(C)c4c2)C3=O)cc(C)c1Cl	GI50 (cells [3]): 9.9 µM; GI50 (OPM-2): 5.7 µM; GI50 (cells [4]): 6.6 µM; GI50 (MV4-11): 6.2 µM; pKi [5]: 7.03
6.31	3300 nM	< 4.44	6.2 µM	122 ×10⁻⁶ cm/s	Cc1cc(OCCCc2c3n(c4c(-c5c(C)nn(C)c5C)c(Cl)ccc24)CCCN(c2ccc(C(=O)O)c4cccnc24)C3=O)cc(C)c1Cl	
				307 ×10⁻⁶ cm/s	Cc1cc(OCCCc2c3n(c4c(-c5c(C)nn(C)c5C)c(Cl)ccc24)CCCN(c2cccc(C(=O)O)c2)C3=O)cc(C)c1Cl	
				< 1 ×10⁻⁶ cm/s	Cc1cc(OCCCc2c(C(=O)Nc3cncc(C(=O)O)c3)[nH]c3c(-c4c(C)nn(C)c4C)c(Cl)ccc23)cc(C)c1Cl	
				1.2 ×10⁻⁶ cm/s	Cc1cc(OCCCc2c(C(=O)Nc3ccc(C(=O)O)cc3)[nH]c3c(-c4c(C)nn(C)c4C)c(Cl)ccc23)cc(C)c1Cl	
				< 3.3 ×10⁻⁶ cm/s	Cc1cc(OCCCc2c(C(=O)Nc3cc(C(=O)O)ccn3)[nH]c3c(-c4c(C)nn(C)c4C)c(Cl)ccc23)cc(C)c1Cl	
				< 1.2 ×10⁻⁶ cm/s	Cc1cc(OCCCc2c(C(=O)NCc3cc(C(=O)O)ccn3)[nH]c3c(-c4c(C)nn(C)c4C)cccc23)cc(C)c1Cl	
6.26	2300 nM	< 4.44	> 12.5 µM	63 ×10⁻⁶ cm/s	Cc1cc(OCCCc2c3n(c4c(-c5c(C)nn(C)c5C)c(Cl)ccc24)CCCN(c2cc(C(=O)O)cc4c2OCO4)C3=O)cc(C)c1Cl	
6.60	1000 nM	4.96	5.7 µM	4.4 ×10⁻⁶ cm/s	Cc1cc(OCCCc2c3n(c4c(-c5c(C)nn(C)c5C)c(Cl)ccc24)CCCN(c2cccc4c(C(=O)O)cccc24)C3=O)cc(C)c1Cl	
				< 1.6 ×10⁻⁶ cm/s	Cc1cc(OCCCc2c(C(=O)Nc3cccc(C(=O)O)n3)[nH]c3c(-c4c(C)nn(C)c4C)c(Cl)ccc23)cc(C)c1Cl	
6.25	300 nM	4.59	> 12.5 µM		Cc1cc(OCCCc2c3n(c4c(-c5c(C)nn(C)c5C)c(Cl)ccc24)CCCN(c2cn(C)c4ccc(C(=O)O)cc24)C3=O)cc(C)c1Cl	GI50 (NCI-H929 [6]): 280 nM and 330 nM
				2.3 ×10⁻⁶ cm/s	Cc1cc(OCCCc2c(C(=O)Nc3ccc(C(=O)O)o3)[nH]c3c(-c4c(C)nn(C)c4C)c(Cl)ccc23)cc(C)c1Cl	
					Cc1cc(OCCCc2c(C(=O)NCC(=O)O)[nH]c3ccccc23)cc(C)c1Cl	pKi [5]: 6.21
					Cc1cc(OCCCc2c(C(=O)NCc3ccc(C(=O)O)o3)[nH]c3ccccc23)cc(C)c1Cl	pKi [5]: 7.16
				< 2.3 ×10⁻⁶ cm/s	Cc1cc(OCCCc2c(C(=O)Nc3ccc(C(=O)O)cn3)[nH]c3c(-c4c(C)nn(C)c4C)c(Cl)ccc23)cc(C)c1Cl	
6.36	5700 nM	< 4.44	> 12.5 µM	4.8 ×10⁻⁶ cm/s	Cc1cc(OCCCc2c3n(c4c(-c5c(C)nn(C)c5C)c(Cl)ccc24)CCCN(c2ccc(C(=O)O)c4ccn(C)c24)C3=O)cc(C)c1Cl	
6.51	1000 nM	4.68	> 9.2 µM		Cc1cc(OCCCc2c3n(c4c(-c5c(C)nn(C)c5C)c(Cl)ccc24)CCCN(c2cn(C)c4c(C(=O)O)cccc24)C3=O)cc(C)c1Cl	

SMILES	pKi [1]	GI50 (NCI-H929 [2])	pKi (Bcl-2-like protein 1)	GI50 at 72 h (in vitro)	Papp (physchem)	other results
Cc1cc(OCCCc2c3n(c4c(-c5c(C)nn(C)c5C)c(Cl)ccc24)CCCN(c2cc(C(=O)O)c4ccn(C)c4c2)C3=O)cc(C)c1Cl	6.24	1400 to 1600 nM	4.72	11 to 11.5 µM	21 ×10⁻⁶ cm/s	GI50 (cells [3]): 3.2 µM; GI50 (OPM-2): 1.4 µM; GI50 (cells [4]): 1.5 µM; GI50 (MV4-11): 0.77 µM
